The results in this text go back to patent US20240124408A1 (Sanofi, priority 2020, published 2024).

Holding throughout (type): cell-based
Experiment [1] addresses T1, human TRPM8 (Homo sapiens, UniProt Q7Z2W7).
T1 construct: expressed in transfected cells; host or cells: CHO (p658 mammalian expression vector)
Put plainly: In vitro human TRPM8 fluorescence calcium flux assay (recombinant CHO cells, Fluo4-AM, FDSS6000). The following applies: recombinant CHO cells expressing human TRPM8; menthol-related EC50, normalized to 100 μM menthol. The method in brief: (§1)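 Agonist EC50 values come from sixteen-point dose responses normalized to the 100 μM menthol maximum, fitted sigmoidally. Calcium rise was followed for 3 min post-addition in recombinant CHO lines (human or pig TRPM8). Cells were dye-loaded with 2 μM Fluo4-AM, 1 h at room temperature, probenecid-containing HBSS.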
A general note: Calcium assays in cells follow changes in intracellular calcium, usually with a dye or a luminescent sensor.

In experiment [2] the target is T2, pig TRPM8 (Sus scrofa, UniProt F1SM15).
T2 construct: expressed in transfected cells; host or cells: CHO (pcDNA5/FRT/TO vector; hygromycin B and blasticidin selection)
Put plainly: In vitro pig TRPM8 fluorescence calcium flux assay (recombinant CHO cells, Fluo4-AM, FDSS6000). The following applies: recombinant CHO cells expressing pig TRPM8; menthol-related EC50, normalized to 100 μM menthol. The method in brief:
as §1

The target of experiment [3] is T1, human TRPM8. As to the kind of experiment: In vitro human TRPM8 automated patch-clamp assay (SyncroPatch 384PE, CHO cells). The note with it: CHO cells expressing human TRPM8, 28° C. Summed up:
(§2)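 Whole-cell automated patch clamp on engineered CHO lines at 28 °C, held at −60 mV, with −80 to +80 mV ramps every 5 s; one compound concentration per well. Peak current minus pre-addition baseline was normalised to no-compound control and Emax, and EC50 was fitted; 200 μM menthol wells served as control.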
In general terms: The patch-clamp technique gives a direct electrical read-out from membranes.

Experiment [4] addresses T2, pig TRPM8. As to the kind of experiment: In vitro pig TRPM8 automated patch-clamp assay (SyncroPatch 384PE, CHO cells). The following applies: CHO cells expressing pig TRPM8, 28° C. Summed up: as §2

Structures can show the parent of a compound that is named as a salt. Bounds are passed on as bounds.

T2 sequence (F1SM15 1-1104): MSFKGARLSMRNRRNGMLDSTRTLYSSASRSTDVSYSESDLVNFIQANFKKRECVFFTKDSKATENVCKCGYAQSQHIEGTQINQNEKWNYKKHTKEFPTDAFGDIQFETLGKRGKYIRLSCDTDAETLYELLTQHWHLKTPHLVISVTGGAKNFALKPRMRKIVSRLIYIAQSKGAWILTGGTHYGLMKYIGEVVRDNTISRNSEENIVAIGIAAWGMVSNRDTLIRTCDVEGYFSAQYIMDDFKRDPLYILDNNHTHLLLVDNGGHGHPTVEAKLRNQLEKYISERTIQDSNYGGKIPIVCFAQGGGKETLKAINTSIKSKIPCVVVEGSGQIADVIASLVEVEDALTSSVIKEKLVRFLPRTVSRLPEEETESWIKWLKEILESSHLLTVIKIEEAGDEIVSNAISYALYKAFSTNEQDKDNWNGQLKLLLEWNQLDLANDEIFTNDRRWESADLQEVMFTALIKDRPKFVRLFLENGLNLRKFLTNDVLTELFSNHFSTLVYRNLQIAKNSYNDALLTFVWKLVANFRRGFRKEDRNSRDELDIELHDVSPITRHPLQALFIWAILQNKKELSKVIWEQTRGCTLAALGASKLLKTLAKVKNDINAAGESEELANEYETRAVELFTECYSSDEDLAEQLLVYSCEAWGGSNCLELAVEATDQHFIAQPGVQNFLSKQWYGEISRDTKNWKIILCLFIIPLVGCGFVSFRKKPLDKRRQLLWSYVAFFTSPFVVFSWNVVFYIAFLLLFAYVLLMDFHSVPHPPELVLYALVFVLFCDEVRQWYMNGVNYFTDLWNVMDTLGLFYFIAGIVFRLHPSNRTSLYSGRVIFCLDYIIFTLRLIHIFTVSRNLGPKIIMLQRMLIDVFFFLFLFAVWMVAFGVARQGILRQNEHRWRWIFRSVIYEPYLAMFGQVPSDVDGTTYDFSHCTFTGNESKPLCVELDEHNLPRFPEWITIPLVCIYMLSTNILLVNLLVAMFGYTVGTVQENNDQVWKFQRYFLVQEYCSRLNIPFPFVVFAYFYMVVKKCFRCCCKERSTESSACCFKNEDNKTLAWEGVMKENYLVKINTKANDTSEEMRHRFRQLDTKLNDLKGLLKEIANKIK
T1 sequence (Q7Z2W7 whole entry): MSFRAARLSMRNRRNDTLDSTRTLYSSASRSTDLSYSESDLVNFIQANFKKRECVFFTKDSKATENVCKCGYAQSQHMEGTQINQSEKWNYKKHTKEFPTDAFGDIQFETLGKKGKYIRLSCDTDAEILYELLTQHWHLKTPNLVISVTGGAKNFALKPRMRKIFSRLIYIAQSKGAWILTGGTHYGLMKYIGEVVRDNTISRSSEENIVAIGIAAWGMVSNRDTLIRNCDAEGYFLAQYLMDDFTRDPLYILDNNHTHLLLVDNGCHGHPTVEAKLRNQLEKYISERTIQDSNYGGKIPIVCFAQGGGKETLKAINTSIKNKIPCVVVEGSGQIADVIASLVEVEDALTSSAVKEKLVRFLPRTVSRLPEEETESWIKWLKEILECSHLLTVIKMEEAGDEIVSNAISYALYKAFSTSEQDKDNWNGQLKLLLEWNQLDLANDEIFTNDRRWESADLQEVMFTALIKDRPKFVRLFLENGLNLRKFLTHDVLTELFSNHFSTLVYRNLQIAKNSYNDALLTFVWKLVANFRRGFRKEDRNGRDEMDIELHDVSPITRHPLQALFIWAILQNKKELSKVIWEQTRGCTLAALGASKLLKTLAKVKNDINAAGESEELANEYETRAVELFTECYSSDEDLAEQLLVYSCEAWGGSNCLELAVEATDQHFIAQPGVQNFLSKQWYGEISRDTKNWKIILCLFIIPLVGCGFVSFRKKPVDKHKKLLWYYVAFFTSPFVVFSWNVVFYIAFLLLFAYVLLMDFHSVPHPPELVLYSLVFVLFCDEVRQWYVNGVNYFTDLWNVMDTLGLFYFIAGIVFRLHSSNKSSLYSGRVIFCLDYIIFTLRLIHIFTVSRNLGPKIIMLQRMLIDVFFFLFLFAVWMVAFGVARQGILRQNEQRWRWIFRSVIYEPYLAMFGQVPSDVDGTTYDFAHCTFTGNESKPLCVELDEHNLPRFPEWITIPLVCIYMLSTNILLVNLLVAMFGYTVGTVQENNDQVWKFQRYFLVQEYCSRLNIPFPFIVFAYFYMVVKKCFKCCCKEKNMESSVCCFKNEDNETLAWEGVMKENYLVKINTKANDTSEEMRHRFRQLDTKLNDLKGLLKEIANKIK

What is called EC50 is the concentration that produces a half-maximal response. Consider `CC(C)[C@@H]1CC[C@@H](C)C[C@@]1(O)C(=O)NCC(CO)c1ccccc1` (single isomer, unassigned) [Example 89], for which the concentration giving a half-maximal response (EC50) on human TRPM8 [1] is 90.3 nM; on pig TRPM8 [2] it was 47.6 nM; on human TRPM8 [3] it was 3300 nM; on pig TRPM8 [4], 3250 nM.

Regarding `CC(C)[C@@H]1CC[C@@H](C)C[C@@]1(O)C(=O)NCCc1cccc(OCC(O)CO)c1` (stereo partly drawn) [Example 10, (1S,2S,5R)—N-(3-(2,3-dihydroxypropoxy)phenethyl)-1-hydroxy-2-isopropyl-5-methylcyclohexane-1-carboxamide], the concentration giving a half-maximal response (EC50) on human TRPM8 [1] amounted to 21.4 nM; on pig TRPM8 [2] it was 9.7 nM; at human TRPM8 [3] it was 4130 nM; on pig TRPM8 [4], 4800 nM.

Turning to `CC(C)[C@@H]1CC[C@@H](C)C[C@@]1(O)C(=O)NCCc1ccccc1OC[C@H](O)CO` [Example 24, (1S,2S,5R)—N-(2-((R)-2,3-dihydroxypropoxy)phenethyl)-1-hydroxy-2-isopropyl-5-methylcyclohexane-1-carboxamide], the EC50 on human TRPM8 [1] is 7.8 nM; on pig TRPM8 [2] it was 13.4 nM; at human TRPM8 [3], 2580 nM; at pig TRPM8 [4], 1700 nM.

For the compound `CC(C)[C@@H]1CC[C@@H](C)C[C@@]1(O)C(=O)NC[C@@H](OCC(=O)O)c1ccccc1` [Example 55, 2-((S)-2-((1S,2S,5R)-1-hydroxy-2-isopropyl-5-methylcyclohexane-1-carboxamido)-1-phenylethoxy)acetic acid], the EC50 was determined as 102 nM on human TRPM8 [1], 54.3 nM on pig TRPM8 [2], 4470 nM at human TRPM8 [3] and 3550 nM at pig TRPM8 [4].

Take `COc1ccc(CCNC(=O)[C@]2(O)C[C@H](C)CC[C@H]2C(C)C)cc1OC` [Example 113, (1S,2S,5R)-N-[2-(3,4-dimethoxyphenyl)ethyl]-1-hydroxy-2-isopropyl-5-methyl-cyclohexanecarboxamide]: the 50% effective concentration (EC50) at human TRPM8 [1] stood at 99.4 nM; on pig TRPM8 [2] it was 93.5 nM; at human TRPM8 [3], 1400 nM; at pig TRPM8 [4], 9640 nM.

In the case of `CC(C)[C@@H]1CC[C@@H](C)C[C@@]1(O)C(=O)NCC(=O)c1cccc(F)c1F` [Example 142, (1S,2S,5R)-N-[2-(2,3-difluorophenyl)-2-oxo-ethyl]-1-hydroxy-2-isopropyl-5-methyl-cyclohexanecarboxamide], the EC50 on human TRPM8 [1] was 12 nM; at pig TRPM8 [2] it was 4 nM; on human TRPM8 [3] it was 1410 nM; on pig TRPM8 [4], 3290 nM.

Turning to `CC(C)[C@@H]1CC[C@@H](C)C[C@@]1(O)C(=O)NCC(CCO)c1ccccc1` (stereo partly drawn) [Example 66, (1S,2S,5R)-1-hydroxy-N-(4-hydroxy-2-phenylbutyl)-2-isopropyl-5-methylcyclohexane-1-carboxamide], the concentration giving a half-maximal response (EC50) on human TRPM8 [1] is 51 nM; at pig TRPM8 [2], 75 nM; on human TRPM8 [3], 3700 nM; on pig TRPM8 [4], 6060 nM.

On to `CC(C)[C@@H]1CC[C@@H](C)C[C@@]1(O)C(=O)NCCc1ccccc1OCC[N+](C)(C)C` [Example 11, 2-(2-(2-((1S,2S,5R)-1-hydroxy-2-isopropyl-5-methylcyclohexane-1-carboxamido)ethyl)phenoxy)-N,N,N-trimethylethan-1-aminium iodide], for which the EC50 turned out to be 148 nM on human TRPM8 [1], 298 nM on pig TRPM8 [2], 3700 nM on human TRPM8 [3] and 4900 nM on pig TRPM8 [4].

For `CC(C)[C@@H]1CC[C@@H](C)C[C@@]1(O)C(=O)NC[C@@H](OCCO)c1ccccc1` [Example 56, (1S,2S,5R)-1-hydroxy-N—((S)-2-(2-hydroxyethoxy)-2-phenylethyl)-2-isopropyl-5-methylcyclohexane-1-carboxamide], the EC50 is 19.6 nM at human TRPM8 [1], 11.2 nM on pig TRPM8 [2], over 10000 nM at human TRPM8 [3] and 6160 nM at pig TRPM8 [4].

Consider `CC(C)[C@@H]1CC[C@@H](C)C[C@@]1(O)C(=O)NCCc1cccc(CO)c1` [Example 15, (1S,2S,5R)-1-hydroxy-N-(3-(hydroxymethyl)phenethyl)-2-isopropyl-5-methylcyclohexane-1-carboxamide], for which the EC50 came to 3 nM on human TRPM8 [1], 2.1 nM on pig TRPM8 [2], 1430 nM at human TRPM8 [3] and 1510 nM on pig TRPM8 [4].

Turning to `CC(C)[C@@H]1CC[C@@H](C)C[C@@]1(O)C(=O)NCCc1ccccc1OCCN` [Example 6, (1S,2S,5R)—N-(2-(2-aminoethoxy)phenethyl)-1-hydroxy-2-isopropyl-5-methylcyclohexane-1-carboxamide], the EC50 came out at 0.3 nM at human TRPM8 [1], 0.5 nM on pig TRPM8 [2], 72 nM at human TRPM8 [3] and 237 nM on pig TRPM8 [4].

As to `CC(C)[C@@H]1CC[C@@H](C)C[C@@]1(O)C(=O)NCCc1ccccn1` [Example 125, (1S,2S,5R)-1-hydroxy-2-isopropyl-5-methyl-N-[2-(2-pyridyl)ethyl]cyclohexanecarboxamide], the EC50 at human TRPM8 [1] is 42.3 nM; at pig TRPM8 [2] it was 15.2 nM; at human TRPM8 [3] it was 5900 nM; on pig TRPM8 [4], 7740 nM.

Regarding `CC(C)[C@@H]1CC[C@@H](C)C[C@@]1(O)C(=O)NCC1(O)CCc2ccc(Cl)cc21` (stereo partly drawn) [Example 145, (1S,2S,5R)-N-[(6-chloro-1-hydroxy-indan-1-yl)methyl]-1-hydroxy-2-isopropyl-5-methyl-cyclohexanecarboxamide], the EC50 on human TRPM8 [1] came to 2.9 nM; on pig TRPM8 [2] it was 2.7 nM; on human TRPM8 [3], 230 nM; at pig TRPM8 [4] it was 515 nM.

With `CC(C)[C@@H]1CC[C@@H](C)C[C@@]1(O)C(=O)NCC(=O)c1cccc(O)c1` [Example 39, (1S,2S,5R)-1-hydroxy-N-(2-(3-hydroxyphenyl)-2-oxoethyl)-2-isopropyl-5-methylcyclohexane-1-carboxamide], the EC50 at human TRPM8 [1] was found to be 1.2 nM; at pig TRPM8 [2], 0.9 nM; at human TRPM8 [3], 460 nM; at pig TRPM8 [4], 430 nM.

With `CC(C)[C@@H]1CC[C@@H](C)C[C@@]1(O)C(=O)NCC(C(=O)OCC(C)(C)N)c1ccccc1` (stereo partly drawn) [Example 73, 2-amino-2-methylpropyl 3-((1S,2S,5R)-1-hydroxy-2-isopropyl-5-methylcyclohexane-1-carboxamido)-2-phenylpropanoate hydrochloride], the concentration giving a half-maximal response (EC50) on human TRPM8 [1] came to 4 nM; on pig TRPM8 [2] it was 8 nM; on human TRPM8 [3], 690 nM; on pig TRPM8 [4], 1120 nM.

Turning to `CC(C)[C@@H]1CC[C@@H](C)C[C@@]1(O)C(=O)NCCc1cccc(C#N)c1` [Example 48, (1S,2S,5R)—N-(3-cyanophenethyl)-1-hydroxy-2-isopropyl-5-methylcyclohexane-1-carboxamide], the concentration giving a half-maximal response (EC50) is 13.5 nM at human TRPM8 [1], 5 nM on pig TRPM8 [2], 2630 nM on human TRPM8 [3] and 4600 nM at pig TRPM8 [4].

With `CC(C)[C@@H]1CC[C@@H](C)C[C@@]1(O)C(=O)NCC(C)(O)c1ccccc1` (stereo partly drawn) [Example 164, (1S,2S,5R)-1-hydroxy-N-(2-hydroxy-2-phenyl-propyl)-2-isopropyl-5-methyl-cyclohexanecarboxamide], the EC50 at human TRPM8 [1] amounted to 34.3 nM; at pig TRPM8 [2], 21.2 nM; on human TRPM8 [3], 2200 nM; at pig TRPM8 [4], 1040 nM.

For the compound `CC(C)[C@@H]1CC[C@@H](C)C[C@@]1(O)C(=O)NCC(CO)c1ccccc1` (single isomer, unassigned) [Example 90], the EC50 at human TRPM8 [1] turned out to be 41.8 nM; on pig TRPM8 [2] it was 14.4 nM; on human TRPM8 [3], 3000 nM; at pig TRPM8 [4], 2000 nM.
